Assay results from patent US8263609B2, “Tetrahydro-β-carbolin-sulfonamide derivatives as 5-Ht6 ligands” (Laboratorios Del Dr. Esteve, S.A., priority 2005, dated 2012).

Legend:
[1] = target: T1, 5HT6-human recombinant receptor (Homo sapiens, UniProt P50406); assay: Binding to Serotonin Receptor 5HT6 ([3H]-LSD radioligand displacement, HEK-293 cell membranes); conditions: [3H]-LSD 2.7 nM, HEK-293 membranes; for Ki: non-linear regression EBDA/LIGAND; for inhibition at 0.1 µM: compound at 10^−7 M, 60 min, 37° C.
T1 construct: purchased Receptor Biology; host or cells: HEK-293 cell membranes
Protocol: Binding to Serotonin Receptor 5HT6
Cell membranes of HEK-293 cells expressing the 5HT6-human recombinant receptor were supplied by Receptor Biology. In said membranes the receptor concentration is 2.18 pmol/mg protein and the protein concentration is 9.17 mg/ml. The experimental protocol follows the method of B. L. Roth et al. [B. L. Roth et al., The Journal of Pharmacology and Experimental Therapeutics, 1994, 268, 1403] with the following slight changes. The respective part of the literature description is hereby incorporated by reference and forms part of the disclosure.
The commercial membrane is diluted (1:40 dilution) with the binding buffer: 50 mM Tris-HCl, 10 mM MgCl2, 0.5 mM EDTA (pH 7.4). The radioligand used is [^3H]-LSD at a concentration of 2.7 nM with a final volume of 200 μl. incubation is initiated by adding 100 μl of membrane suspension, (≈22.9 μg membrane protein), and is prolonged for 60 minutes at a temperature of 37° C. The incubation is ended by fast filtration in a Brandel Cell Harvester through fiber glass filters made by Schleicher & Schuell GF 3362 pretreated with a solution of polyethylenimine at 0.5%. The filters are washed three times with three milliliters of buffer Tris-HCl 50 mM pH 7.4. The filters are transferred to flasks and 5 ml of Ecoscint H liquid scintillation cocktail are added to each flask. The flasks are allowed to reach equilibrium for several hours before counting with a Wallac Winspectral 1414 scintillation counter. Non-specific binding is determined in the presence of 100 μM of serotonin. Tests were made in triplicate. The inhibition constants (Ki, nM) were calculated by non-linear regression analysis using the program EBDA/LIGAND described in Munson and Rodbard, Analytical Biochemistry, 1980, 107, 220, which is hereby incorporated by reference and forms part of the disclosure.

T1 sequence (P50406 whole entry): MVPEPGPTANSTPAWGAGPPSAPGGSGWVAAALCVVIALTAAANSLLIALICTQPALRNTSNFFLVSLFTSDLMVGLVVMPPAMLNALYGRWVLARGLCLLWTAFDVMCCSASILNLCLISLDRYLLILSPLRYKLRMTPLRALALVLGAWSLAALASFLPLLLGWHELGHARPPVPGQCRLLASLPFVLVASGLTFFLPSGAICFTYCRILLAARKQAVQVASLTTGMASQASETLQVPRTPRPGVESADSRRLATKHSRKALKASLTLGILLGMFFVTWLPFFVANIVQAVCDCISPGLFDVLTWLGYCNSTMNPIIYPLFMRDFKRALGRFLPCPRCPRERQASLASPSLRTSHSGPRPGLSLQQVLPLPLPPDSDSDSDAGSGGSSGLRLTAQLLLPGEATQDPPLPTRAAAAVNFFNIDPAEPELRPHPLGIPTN

melting point	SMILES	Ki [1]	inhibition at 0.1 µM [1]
232 to 234 °C	CN1CCc2c([nH]c3ccc(NS(=O)(=O)c4csc5ccccc45)cc23)C1c1ccccc1 (stereo not drawn) [Example 29, Benzo[b]thiophene-3-sulfonic acid (2-methyl-1-phenyl-2,3,4,9-tetrahydro-1H-β-carbolin-6-yl)-amide]	–	–
244 to 245 °C	CN1CCc2c([nH]c3ccc(NS(=O)(=O)c4cccc5nsnc45)cc23)C1	–	–
242 to 244 °C	O=S(=O)(Nc1ccc2[nH]c3c(c2c1)CCNC3)c1c(Cl)nc2sccn12 [Example 47, 6-chloro-imidazo[2,1-b]thiazole-5-sulfonic acid (2,3,4,9-tetrahydro-1H-β-carbolin-6-yl)-amide]	–	–
232 to 233 °C	O=S(=O)(Nc1ccc2[nH]c3c(c2c1)CCN(CC(F)(F)F)C3)c1c(Cl)nc2sccn12	–	–
255 to 260 °C	CN1CCc2c([nH]c3ccc(NS(=O)(=O)c4ccc5ccccc5c4)cc23)C1c1ccccc1 (stereo not drawn) [Example 28, Naphthalene-2-sulfonic acid (2-methyl-1-phenyl-2,3,4,9-tetrahydro-1H-β-carbolin-6-yl)-amide]	–	–
164 to 166 °C	O=S(=O)(Nc1ccc2[nH]c3c(c2c1)CCN(CC(F)(F)F)C3)c1ccc2c(Cl)cccc2c1	–	–
241 to 242 °C	CN1CCc2c([nH]c3ccc(NS(=O)(=O)c4cccc5c(N(C)C)cccc45)cc23)C1	–	–
229 to 231 °C	CN1CCc2c([nH]c3c(NS(=O)(=O)c4cc5ccccc5o4)cccc23)C1	–	–
236 to 237 °C	CN1CCc2c([nH]c3cccc(NS(=O)(=O)c4csc5ccccc45)c23)C1	–	–
251 to 252 °C	CN1CCc2c([nH]c3c(NS(=O)(=O)c4cccc5c(Cl)cccc45)cccc23)C1	–	–
256 to 257 °C	CN1CCc2c([nH]c3c(NS(=O)(=O)c4ccc5c(Cl)cccc5c4)cccc23)C1	–	–
199 to 200 °C	CC(=O)Nc1nc(C)c(S(=O)(=O)Nc2ccc3[nH]c4c(c3c2)CCN(C)C4)s1	–	–
173 to 175 °C	O=S(=O)(Nc1ccc2[nH]c3c(c2c1)CCN(CC(F)(F)F)C3)c1csc2ccccc12	–	–
230 to 231 °C	CN1CCc2c([nH]c3ccc(NS(=O)(=O)c4ccc5ccc(Cl)cc5c4)cc23)C1	–	–
246 to 247 °C	CN1CCc2c([nH]c3c(NS(=O)(=O)c4cccc5nonc45)cccc23)C1	–	–
230 to 232 °C	CN1CCc2c([nH]c3c(NS(=O)(=O)c4c(Cl)nc5sccn45)cccc23)C1	–	–
238 to 240 °C	CN1CCc2c([nH]c3c(NS(=O)(=O)c4cccc5nsnc45)cccc23)C1	–	–
257 to 259 °C	CN1CCc2c([nH]c3cc(NS(=O)(=O)c4ccc5c(Cl)cccc5c4)ccc23)C1	–	–
236 to 238 °C	CN1CCc2c([nH]c3ccc(NS(=O)(=O)c4ccc(F)c5ccccc45)cc23)C1	–	–
245 to 247 °C	CN1CCc2c([nH]c3cccc(NS(=O)(=O)c4ccc5c(Cl)cccc5c4)c23)C1	–	–
225 to 226 °C	CN1CCc2c([nH]c3c(NS(=O)(=O)c4cccc5c(N(C)C)cccc45)cccc23)C1	–	–
259 to 260 °C	CN1CCc2c([nH]c3c(NS(=O)(=O)c4cccc5ccccc45)cccc23)C1	–	–

Further lines, the compound ahead of its results:

SMILES	melting point	Ki [1]	inhibition at 0.1 µM [1]
CN1CCc2c([nH]c3ccc(NS(=O)(=O)c4cccc5ccccc45)cc23)C1	245 to 246 °C	–	–
CN1CCc2c([nH]c3ccc(NS(=O)(=O)c4cc5ccccc5o4)cc23)C1	165 to 166 °C	–	–
CN1CCc2c([nH]c3ccc(NS(=O)(=O)c4ccc5ccccc5c4)cc23)C1 [Example 12, Naphthalene-2-sulfonic acid (2-methyl-2,3,4,9-tetrahydro-1H-β-carbolin-6-yl)-amide]	244 to 245 °C	15.9 nM	89.7%
CN1CCc2c([nH]c3c(NS(=O)(=O)c4ccc5ccccc5c4)cccc23)C1 [Example 38, Naphthalene-2-sulfonic acid (2-methyl-2,3,4,9-tetrahydro-1H-β-carbolin-8-yl)-amide]	240 to 242 °C	–	73.5%
CCCN1CCc2c([nH]c3ccc(NS(=O)(=O)c4c(Cl)nc5sccn45)cc23)C1 [Example 26, 6-Chloro-imidazo[2,1-b]thiazole-5-sulfonic acid (2-propyl-2,3,4,9-tetrahydro-1H-β-carbolin-6-yl)-amide]	206 to 207 °C	2 nM	87.9%
CCN1CCc2c([nH]c3ccc(NS(=O)(=O)c4c(Cl)nc5sccn45)cc23)C1 [Example 19, 6-Chloro-imidazo[2,1-b]thiazole-5-sulfonic acid (2-ethyl-2,3,4,9-tetrahydro-1H-β-carbolin-6-yl)-amide]	219 to 222 °C	1.1 nM	97%
CN1CCc2c([nH]c3ccc(NS(=O)(=O)c4ccc(N)cc4)cc23)C1	236 to 237 °C	–	–
CN1CCc2c([nH]c3cccc(NS(=O)(=O)c4c(Cl)nc5sccn45)c23)C1	252 to 253 °C	–	–
CN1CCc2c([nH]c3ccc(NS(=O)(=O)c4csc5ccccc45)cc23)C1 [Example 2, Benzo[b]thiophene-3-sulfonic acid (2-methyl-2,3,4,9-tetrahydro-1H-β-carbolin-6-yl)-amide]	224 to 226 °C	2.8 nM	79.5%
CN1CCc2c([nH]c3c(NS(=O)(=O)c4csc5ccccc45)cccc23)C1 [Example 45, Benzo[b]thiophene-3-sulfonic acid (2-methyl-2,3,4,9-tetrahydro-1H-β-carbolin-8-yl)-amide]	225 to 226 °C	29.7 nM	87.1%
CN1CCc2c([nH]c3ccc(NS(=O)(=O)c4ccc5c(Cl)cccc5c4)cc23)C1 [Example 4, 5-Chloro-naphthalene-2-sulfonic acid (2-methyl-2,3,4,9-tetrahydro-1H-β-carbolin-6-yl)-amide]	–	–	70.6%
CCN1CCc2c([nH]c3ccc(NS(=O)(=O)c4csc5ccccc45)cc23)C1 [Example 22, Benzo[b]thiophene-3-sulfonic acid (2-ethyl-2,3,4,9-tetrahydro-1H-β-carbolin-6-yl)-amide]	215 to 216 °C	36.7 nM	84.6%
CN1CCc2c([nH]c3cc(NS(=O)(=O)c4c(Cl)nc5sccn45)ccc23)C1 [Example 35, 6-Chloro-imidazo[2,1-b]thiazole-5-sulfonic acid (2-methyl-2,3,4,9-tetrahydro-1H-β-carbolin-7-yl)-amide]	225 to 227 °C	8 nM	90%
CN1CCc2c([nH]c3cc(NS(=O)(=O)c4csc5ccccc45)ccc23)C1	255 to 257 °C	–	–
CN1CCc2c([nH]c3cccc(NS(=O)(=O)c4cccc5ccccc45)c23)C1	217 to 218 °C	–	–
CC(C)N1CCc2c([nH]c3ccc(NS(=O)(=O)c4c(Cl)nc5sccn45)cc23)C1 [Example 27, 6-Chloro-imidazo[2,1-b]thiazole-5-sulfonic acid (2-isopropyl-2,3,4,9-tetrahydro-1H-β-carbolin-6-yl)-amide]	234 to 235 °C	–	81.8%
Cc1ccc2sc(S(=O)(=O)Nc3ccc4[nH]c5c(c4c3)CCN(C)C5)cc2c1 [Example 13, 5-Methyl-benzo[b]thiophene-2-sulfonic acid (2-methyl-2,3,4,9-tetrahydro-1H-β-carbolin-6-yl)-amide]	241 to 242 °C	–	71.1%
CC(=O)Nc1ccc(S(=O)(=O)Nc2ccc3[nH]c4c(c3c2)CCN(C)C4)cc1	232 to 234 °C	–	–
CN1CCc2c([nH]c3ccc(NS(=O)(=O)c4ccc5cc(Cl)ccc5c4)cc23)C1 [Example 16, 6-Chloro-naphthalene-2-sulfonic acid (2-methyl-2,3,4,9-tetrahydro-1H-β-carbolin-6-yl)-amide]	174 to 175 °C	–	85%
CN1CCc2c([nH]c3ccc(NS(=O)(=O)c4c(Cl)nc5sccn45)cc23)C1 [Example 1, 6-chloro-imidazo[2,1-b]thiazole-5-sulfonic acid (2-methyl-2,3,4,9-tetrahydro-1H-β-carbolin-6-yl)-amide]	232 to 233 °C	0.9 nM	80.7%
CCN1CCc2c([nH]c3ccc(NS(=O)(=O)c4ccc5ccccc5c4)cc23)C1	174 to 176 °C	–	–
Cc1c(S(=O)(=O)Nc2ccc3[nH]c4c(c3c2)CCN(C)C4)sc2ccc(Cl)cc12	259 to 260 °C	–	–
